# What was measured:
# active nuclear β-catenin = assay: TOPFlash/FOPFlash reporter assay for active nuclear β-catenin in C3H10T1/2; format: cell-based, mouse; details: for increase in normalized TOPFlash signal compared to untreated controls: after 24 hr treatment, C3H10T1/2
# From the text: FIG. 3 Schematic representation of 3 hr C3H10T1/2 transfection with TOP/FOPFlash DNA plasmid followed by 24 hr exposure to BIO-containing media and subsequent analysis for active nuclear β-catenin over 5 days (A). Active nuclear β-catenin concentrations (TOPFlash) show a BIO-mediated dose-dependent increase immediately after BIO treatment as compared to control plasmid (FOPFlash) (B). Increased active nuclearβ-catenin concentrations persists for 3 days after BIO-treatment before returning to basal levels (C).
# The β-catenin TOPFlash reporter plasmid and the FOPFlash mutant control (Addgene Plasmid #12456, and Addgene Plasmid #12457 were obtained in the form of DH5alpha bacterial stabs. Bacteria were streaked onto ampicillin-containing agar plates and grown overnight at 37° C. A single colony was selected, grown in 50 ml Luria-Bertani (LB) broth with 100 μg/ml ampicillin (Gibco) to select for ampicillin resistant colonies, and cultured at 37° C. under constant agitation for 24 hrs. Bacteria were centrifuged to form a pellet and plasmid DNA was purified using a Plasmid Midi Kit (Qiagen). Plasmid DNA was digested using EcoRI and PvuI restriction endonucleases (New England Biolabs) and fragments were separated on a 0.8% agarose gel. Molecular weights were verified using a standard DNA ladder (HyperLadder I, BioLine).
# C3H10T1/2 mouse embryonic fibroblasts were seeded in multiple 48-well plates and treated with BIO containing growth media for 24 hrs to analyze the effects of β-catenin activity over time. […]
# Luciferase activity was measured prior to BIO treatment (day 0), as well as on days 1, 2, 3, 4, and 5 after the 24 hr BIO treatment period. […] To each 96-well 25 μl of Luciferase Assay Reagent (Promega, Madison, Wis.) was added and total luminescence was measure immediately using a BioTek Synergy Mx plate-reader. Total luminescence was normalized to cellular DNA concentration using a Quant-iT PicoGreen dsDNA Assay Kit (Invitrogen) to account for well-to-well variability in cell density.
# hMSCs = assay: hMSC cell layer thickness by confocal microscopy; format: cell-based, human; details: for cell layer thickness: day 40
# Procedure: hMSC cell layer thickness was measured using the z-directional controls of a FV1000 Olympus Laser Scanning Confocal Microscope. On days 1, 14, and 40 cells, seeded on optically clear glass bottom 24-well culture plates (MatTek, Ashland, Mass.) were stained using a fluorescent LIVE/DEAD Viability/Cytotoxicity kit (Invitrogen). The focal plane of the microscope was adjusted to the cell-plate interface and set to zero. Using the z-directional controls the focal plane was raised until the live fluorescently stained cells were no longer visible at which point the cell layer thickness was recorded.
# [1] = test system: markers of undifferentiated stem cells, Sox2, Nanog, and Oct4; assay: RT-PCR of Sox2, Nanog, Oct4 in two-dimensionally cultured BIO-treated hMSCs, normalized to β-actin; format: cell-based, human
# Procedure: RT-PCR was used to assess gene expression of hMSCs over time. At days: 0 (before BIO treatment), 1, 3, 6, 19, 29, 34, 37, and 41, samples were lysed and total RNA was isolated (ENZA Total RNA Kit, Omega). Reverse transcription was performed using the iScript cDNA Synthesis Kit (Bio-Rad). The reverse transcription reaction was incubated at 25° C. for 5 min, 42° C. for 30 min, and terminated at 85° C. for 5 min. PCR was performed using a CFX96 Real-Time PCR System (Bio-Rad), monitoring sybrgreen products (SsoFastEvaGreen Master Mix, Bio-Rad). Primers for β-actin, sex determining region Y-box 2 (Sox2), Nanog homobox (Nanog), and octamer-binding transcription factor 4 (Oct4), core-binding factor subunit alpha-1 (Cbfa1, also known as Runx2), sex determining region Y-box 9 (Sox9), and peroxisome proliferator-activated receptor gamma (PPARγ) were used (Table 2). The PCR parameters used were as follows: hold at 95° C. for 5 min, followed by 40 cycles of: 95° C. for 15 sec denaturation, 60° C. (β-actin, Sox2, Sox9), or 57° C. (Nanog, Oct4, Cbfa1), or 55° C. (PPARγ) for 60 sec annealing, and 72° C. for 20 sec extension. Threshold cycle (CT) analysis was used to quantify PCR products normalized to the cellular housekeeping gene β-actin. Relative gene quantification was performed using the Pfaffl Method, taking into account the variation between primer efficiencies.
# To more closely examine BIO's effects on hMSCs gene expression profiles for the markers of undifferentiated stem cells sex determining region Y-box 2 (Sox2), Nanog homobox (Nanog), and octamer-binding transcription factor 4 (Oct4) were monitored and normalized to the housekeeping gene β-actin. […] RNA was collected just before, and 1, 3, 6, 19, 27, 34, 37, and 41 days after the BIO treatment Results were quantified over time and again, normalized to both the housekeeping gene β-actin and untreated controls (0 μM BIO), and the results are shown in FIG. 5.
compound,measurement,setting,value
"O=C1Nc2cc(Br)ccc2/C1=C1/Nc2ccccc2/C1=N\O [BIO, 6-bromoindirubin-3′-oxime]",increase in normalized TOPFlash signal compared to untreated controls,active nuclear β-catenin; 2 μM BIO,71 fold
same,increase in normalized TOPFlash signal compared to untreated controls,active nuclear β-catenin; 5 μM BIO,106 fold
same,"persistence of elevated TOPFlash signaling after BIO was removed, before returning to basal levels","active nuclear β-catenin; C3H10T1/2, after 24 hr BIO treatment",three
same,cell layer thickness,hMSCs; 2 μM BIO,23.5 μm
same,cell layer thickness,hMSCs; 5 μM BIO,24.0 μm
same,cell layer thickness versus untreated control,hMSCs; day 0 and 14,no statistically significant differences
same,Nanog gene expression compared to untreated control,"[1]; 2 μM BIO, day 1, 2D",5.4 fold
same,Oct4 gene expression compared to untreated control,"[1]; 2 μM BIO, day 1, 2D",5.1 fold
same,Sox2 gene expression compared to untreated control,"[1]; 2 μM BIO, day 1, 2D",7.1 fold
same,Nanog gene expression compared to untreated control,"[1]; 2 μM BIO, day 3, 2D",1.0 fold
same,Oct4 gene expression compared to untreated control,"[1]; 2 μM BIO, day 3, 2D",3.4 fold
same,Sox2 gene expression compared to untreated control,"[1]; 2 μM BIO, day 3, 2D",4.4 fold
same,Nanog gene expression compared to untreated control,"[1]; 5 μM BIO, day 1, 2D",15.3 fold
same,Oct4 gene expression compared to untreated control,"[1]; 5 μM BIO, day 1, 2D",16.9 fold
same,Sox2 gene expression compared to untreated control,"[1]; 5 μM BIO, day 1, 2D",96.4 fold
same,Nanog gene expression compared to untreated control,"[1]; 5 μM BIO, day 3, 2D",4.8 fold
same,Oct4 gene expression compared to untreated control,"[1]; 5 μM BIO, day 3, 2D",9.8 fold
same,Sox2 gene expression compared to untreated control,"[1]; 5 μM BIO, day 3, 2D",17.7 fold
same,increase of Nanog expression relative to untreated controls,"[1]; day 1, 2 uM BIO",797%
same,increase of Oct4 expression relative to untreated controls,"[1]; day 1, 2 uM BIO",545%
same,increase of Sox2 expression relative to untreated controls,"[1]; day 1, 2 uM BIO",677%
same,increase of Nanog expression relative to untreated controls,"[1]; day 1, 5 uM BIO",2247%
same,increase of Oct4 expression relative to untreated controls,"[1]; day 1, 5 uM BIO",1800%
same,increase of Sox2 expression relative to untreated controls,"[1]; day 1, 5 uM BIO",9180%
same,increase of Nanog expression relative to untreated controls,"[1]; day 3, 2 uM BIO",71%
same,increase of Oct4 expression relative to untreated controls,"[1]; day 3, 2 uM BIO",263%
same,increase of Sox2 expression relative to untreated controls,"[1]; day 3, 2 uM BIO",312%
same,increase of Nanog expression relative to untreated controls,"[1]; day 3, 5 uM BIO",324%
same,increase of Oct4 expression relative to untreated controls,"[1]; day 3, 5 uM BIO",755%
same,increase of Sox2 expression relative to untreated controls,"[1]; day 3, 5 uM BIO",1238%

# Reference: patent US9193954B2, “Methods and compositions for mesenchymal stem cell proliferation” (priority 2011, dated 2015)
